Measured values reported in PubChem BioAssay (NCI).
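Interpolation was linear, between the two tested concentrations surrounding the appropriate level; five concentrations were tested over 48 hours in 96-well plates. TGI is the concentration that stops growth completely.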

Legend:
Experiment in all cases: growth of human tumour cells (NCI), 48 h
[1] = test system: CCRF-CEM leukemia
[2] = test system: COLO 205 colon
[3] = test system: HCC-2998 colon
[4] = test system: HOP-62 NSCLC
[5] = test system: HT29 colon
[6] = test system: K-562 leukemia
[7] = test system: KM12 colon
[8] = test system: OVCAR-5 ovarian
[9] = test system: OVCAR-8 ovarian
[10] = test system: RPMI-8226 leukemia
[11] = test system: SF-268 CNS
[12] = test system: SF-295 CNS
[13] = test system: SK-MEL-5 melanoma
[14] = test system: SK-OV-3 ovarian
[15] = test system: SNB-19 CNS
[16] = test system: SW-620 colon
[17] = test system: UO-31 renal
[18] = test system: NCI-H226 lung
[19] = test system: RXF 393 renal
[20] = test system: SF-539 CNS

Compound | TGI [1] [µM] | TGI [2] [µM] | TGI [3] [µM] | TGI [4] [µM] | TGI [5] [µM] | TGI [6] [µM] | TGI [7] [µM] | TGI [8] [µM] | TGI [9] [µM] | TGI [10] [µM] | TGI [11] [µM] | TGI [12] [µM] | TGI [13] [µM] | TGI [14] [µM] | TGI [15] [µM] | TGI [16] [µM] | TGI [17] [µM] | TGI [18] [µM] | TGI [19] [µM] | TGI [20] [µM]
Cc1cc(C)nc(NS(=O)(=O)c2ccc(Nc3c4ccccc4nc4c(C(=O)NCCCN(CCO)CCO)cccc34)cc2)n1 | 69.7 | 34.3 | 33.6 | 73.5 | > 100 | > 100 | 30.7 | > 100 | > 100 | 79.6 | > 100 | > 100 | 34.8 | > 100 | > 100 | 33.6 | > 100 |  |  | 
COc1nc(SC)nc2c1cnn2C1OC(C(O)CO)C(OC)C1O (stereo unspecified) | > 100 | > 100 | > 100 | > 100 | > 100 | > 100 | > 100 | > 100 | > 100 | > 100 | > 100 | > 100 | > 100 | > 100 | > 100 | > 100 | > 100 | > 100 | > 100 | > 100
Cc1[nH]c(=O)nc(N/N=C/c2ccc(Cl)cc2)c1C(=O)NC(C)(CO)CO | > 100 | > 100 | > 100 | > 100 | > 100 | > 100 | > 100 | > 100 | > 100 | > 100 | > 100 | > 100 | > 100 | > 100 | > 100 | > 100 | > 100 | > 100 | > 100 | 
COc1cc(C2C(Cl)C(=O)N2NC(=O)c2ccccc2O)ccc1O (stereo unspecified) | > 100 |  | > 100 |  | > 100 | > 100 | > 100 |  | > 100 |  | > 100 | > 100 | > 100 | > 100 | > 100 |  | > 100 | > 100 | > 100 | > 100
CC1(C23CC4CC(CC(C4)C2)C3)n2c(=O)n(-c3ccccc3)c(=O)n2C1(C)C12CC3CC(CC(C3)C1)C2 (stereo unspecified) | > 100 | > 100 |  | > 100 | > 100 | > 100 | > 100 | > 100 | > 100 | > 100 | > 100 | > 100 | > 100 | > 100 | > 100 | > 100 | > 100 | > 100 |  | > 100
CCOC(=O)c1csc(NC(=O)CCN2CCCCC2)n1 | > 100 | > 100 | > 100 | > 100 | > 100 | > 100 |  | > 100 | > 100 | > 100 |  | > 100 | > 100 | > 100 | > 100 | > 100 | > 100 |  | > 100 | > 100
CCCCC(C)C1CCC2(C)C=CC(=O)C(C)=C2C1O (stereo unspecified) | > 100 | > 100 | > 100 | > 100 | > 100 | > 100 | > 100 | > 100 | > 100 | > 100 | > 100 | > 100 | > 100 | > 100 | > 100 | > 100 | > 100 | > 100 | > 100 | > 100
CON(C)C(C#N)=C(C#N)C#N | > 10 | > 10 | > 10 | > 10 | > 10 | > 10 | > 10 | > 10 | > 10 | > 10 | > 10 | > 10 | > 10 | > 10 | > 10 | > 10 | > 10 | > 10 | > 10 | > 10
